The values that follow come from patent US12258344B2, “Azaaromatic amide derivatives for the treatment of cancer” (SHENZHEN FORWARD PHARMACEUTICALS CO., LTD., priority 2019, dated 2025).

What all share (format): cell-based
For test [1], the target named is T1, BaF3 (EGFR/D770insSVD) (Homo sapiens, UniProt P00533, cells depend on it, form not given).
T1 construct: other: A763insFQEA, V769ins
The test is described as follows: Test 13: EGFR exon 20 inserted D770insSVD cell proliferation test. The following applies: A763insFQEA, V769insASV, D770insSVD (tests 13-15), in words. Here is the method: (§1) Test 13: EGFR Exon 20 Inserted D770insSVD Cell Proliferation Test
(§2) The number of viable cells in the culture was measured according to the protocol described in Promega's Cell Titer-Glo Luminescent cell Viability Assay (Promega catalog number #G7570). 90 μl of cells (3,000 cells/well) were cultured in growth medium in a Corning black transparent bottom 96-well plate, and cultured in a 5% CO2 humidified incubator at 37° C. overnight. The compound serially diluted in 100% DMSO was added to the cells using a pipette, and the cells were incubated for another 72 hours. 100 μl of the mixed Cell Titer-Glo reagent was added to the cells in the 96-well culture plate to lyse the cells and mix gently. Subsequently, the […] was detected on the Envision microplate detector to obtain the data of each compound. Finally, the data was input into a suitable software package (such as Prism) for curve fitting analysis.

Test [2] has as its target T2, BaF3 (EGFR/D770insSVD) (Homo sapiens, UniProt P00533, DUP768-770, cells depend on it).
T2 construct: Test 13 IC50 (nM); other: BaF3 (EGFR/D770insSVD), 72 hours, Cell Titer-Glo
The description is as above. The following applies: BaF3 (EGFR/D770insSVD), 72 hours, Cell Titer-Glo; read-out: Test 13 IC50. Here is the method:
as §1, §2

The target of test [3] is BaF3 (EGFR/A763insFQEA) (Homo sapiens, UniProt P00533, INS763FQEA, cells depend on it). As to the kind of experiment: Test 14: EGFR exon 20 inserted A763insFQEA cell proliferation test. Particulars: 72 hours, Cell Titer-Glo, read-out: Test 14 IC50. Here is the method:
Test 14: EGFR Exon 20 Inserted A763insFQEA Cell Proliferation Test
as §2
Background: In ATP-based viability assays light output follows the ATP content of the culture.

The target in test [4] is BaF3 (EGFR/V769insASV) (Homo sapiens, UniProt P00533, DUP767-769, cells depend on it). As to the kind of experiment: Test 15: EGFR exon 20 inserted V769insASV cell proliferation test. The following applies: 72 hours, Cell Titer-Glo, read-out: Test 15 IC50. Here is the method:
Test 15: EGFR Exon 20 Inserted V769insASV Cell Proliferation Test
as §2, with “(3000” for “(3,000”

For test [5], the system named is NCI-H1975 (EGFR L858R/T790M double mutant). As to the kind of experiment: Test 1: EGFR L858R/T790M (EGFR double mutant) cell proliferation test. Particulars: Homo sapiens; NCI-H1975 cells, 72 hours, Cell Titer-Glo. The method, then:
Test 1: EGFR L858R/T790M (EGFR Double Mutant) Cell Proliferation Test
The human lung cell line NCI-H1975 (EGFR L858R/T790M double mutant) was obtained from the American Type Culture Collection. NCI-H1975 cells were cultured in RPMI1640 medium containing 10% fetal bovine serum and 2 mM glutamine. The cells were grown at 37° C. in a humidified incubator with 5% CO2.
as §2, with “(8,000” for “(3,000”

In test [6] the target is BaF3 (EGFR-D770insSVD) (Homo sapiens, UniProt P00533, DUP768-770, cells depend on it). As to the kind of experiment: Test 2: BaF3 (EGFR-D770insSVD) cell proliferation test. Particulars: 72 hours, Cell Titer-Glo, read-out: Test 2 - IC50. Here is the method:
Test 2: BaF3 (EGFR-D770insSVD) Cell Proliferation Test
BaF3 (EGFR-D770insSVD) was cultured in RPMI1640 medium containing 10% fetal bovine serum and 2 mM glutamine. The cells were grown at 37° C. in a humidified incubator with 5% CO2.
as §2

Test [7] has as its target BaF3 (EGFR-A763insFQEA) (Homo sapiens, UniProt P00533, INS763FQEA, cells depend on it). As to the kind of experiment: Test 3: BaF3 (EGFR-A763insFQEA) cell proliferation test. Particulars: 72 hours, Cell Titer-Glo, read-out: Test 3 - IC50. Here is the method:
Test 3: BaF3 (EGFR-A763insFOEA) Cell Proliferation Test
BaF3 (EGFR-A763insFQEA) was cultured in RPMI1640 medium containing 10% fetal bovine serum and 2 mM glutamine. The cells were grown at 37° C. in a humidified incubator with 5% CO2.
as §2

Test [8] has as its target BaF3 (EGFR-V769insASV) (Homo sapiens, UniProt P00533, DUP767-769, cells depend on it). As to the kind of experiment: Test 4: BaF3 (EGFR-V769insASV) cell proliferation test. Particulars: 72 hours, Cell Titer-Glo, read-out: Test 4 - IC50. Here is the method: Test 4: BaF3 (EGFR-V769insASV) Cell Proliferation Test
BaF3 (EGFR-V769insASV) was cultured in RPMI1640 medium containing 10% fetal bovine serum and 2 mM glutamine. The cells were grown at 37° C. in a humidified incubator with 5% CO2.
as §2

Sequence of BaF3 (EGFR-D770insSVD) (P00533 with tags, fused parts or gaps DUP768-770): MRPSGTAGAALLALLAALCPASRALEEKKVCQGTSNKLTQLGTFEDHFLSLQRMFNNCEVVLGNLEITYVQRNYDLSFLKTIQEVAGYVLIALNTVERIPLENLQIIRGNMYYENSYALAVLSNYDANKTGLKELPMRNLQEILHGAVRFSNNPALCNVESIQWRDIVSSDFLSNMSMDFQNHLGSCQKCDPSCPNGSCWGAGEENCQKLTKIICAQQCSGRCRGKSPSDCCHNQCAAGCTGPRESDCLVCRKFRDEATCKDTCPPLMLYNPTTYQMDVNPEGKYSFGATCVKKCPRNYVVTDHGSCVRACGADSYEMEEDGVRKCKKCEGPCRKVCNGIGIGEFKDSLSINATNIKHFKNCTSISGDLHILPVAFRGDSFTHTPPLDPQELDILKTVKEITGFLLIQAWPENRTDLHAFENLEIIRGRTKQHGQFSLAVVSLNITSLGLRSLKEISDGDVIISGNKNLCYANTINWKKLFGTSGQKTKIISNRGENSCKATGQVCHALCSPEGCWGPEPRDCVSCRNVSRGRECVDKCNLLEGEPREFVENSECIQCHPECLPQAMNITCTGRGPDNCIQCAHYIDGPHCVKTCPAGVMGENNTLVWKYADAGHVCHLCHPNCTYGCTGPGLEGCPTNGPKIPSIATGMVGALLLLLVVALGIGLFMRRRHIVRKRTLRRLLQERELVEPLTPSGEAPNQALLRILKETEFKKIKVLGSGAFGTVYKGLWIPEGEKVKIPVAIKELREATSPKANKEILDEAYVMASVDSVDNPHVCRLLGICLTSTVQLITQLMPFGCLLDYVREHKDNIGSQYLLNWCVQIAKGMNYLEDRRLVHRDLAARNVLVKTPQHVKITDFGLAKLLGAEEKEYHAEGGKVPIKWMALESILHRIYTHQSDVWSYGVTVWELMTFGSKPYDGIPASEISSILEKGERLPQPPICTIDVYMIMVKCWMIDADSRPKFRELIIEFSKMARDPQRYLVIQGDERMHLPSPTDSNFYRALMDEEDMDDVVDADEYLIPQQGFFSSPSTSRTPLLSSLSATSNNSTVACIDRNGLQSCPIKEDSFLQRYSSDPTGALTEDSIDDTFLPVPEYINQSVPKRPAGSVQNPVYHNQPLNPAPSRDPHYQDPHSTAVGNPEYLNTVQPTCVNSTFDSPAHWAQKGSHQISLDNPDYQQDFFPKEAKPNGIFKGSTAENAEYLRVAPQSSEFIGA
Sequence of BaF3 (EGFR-A763insFQEA) (P00533 with tags, fused parts or gaps INS763FQEA): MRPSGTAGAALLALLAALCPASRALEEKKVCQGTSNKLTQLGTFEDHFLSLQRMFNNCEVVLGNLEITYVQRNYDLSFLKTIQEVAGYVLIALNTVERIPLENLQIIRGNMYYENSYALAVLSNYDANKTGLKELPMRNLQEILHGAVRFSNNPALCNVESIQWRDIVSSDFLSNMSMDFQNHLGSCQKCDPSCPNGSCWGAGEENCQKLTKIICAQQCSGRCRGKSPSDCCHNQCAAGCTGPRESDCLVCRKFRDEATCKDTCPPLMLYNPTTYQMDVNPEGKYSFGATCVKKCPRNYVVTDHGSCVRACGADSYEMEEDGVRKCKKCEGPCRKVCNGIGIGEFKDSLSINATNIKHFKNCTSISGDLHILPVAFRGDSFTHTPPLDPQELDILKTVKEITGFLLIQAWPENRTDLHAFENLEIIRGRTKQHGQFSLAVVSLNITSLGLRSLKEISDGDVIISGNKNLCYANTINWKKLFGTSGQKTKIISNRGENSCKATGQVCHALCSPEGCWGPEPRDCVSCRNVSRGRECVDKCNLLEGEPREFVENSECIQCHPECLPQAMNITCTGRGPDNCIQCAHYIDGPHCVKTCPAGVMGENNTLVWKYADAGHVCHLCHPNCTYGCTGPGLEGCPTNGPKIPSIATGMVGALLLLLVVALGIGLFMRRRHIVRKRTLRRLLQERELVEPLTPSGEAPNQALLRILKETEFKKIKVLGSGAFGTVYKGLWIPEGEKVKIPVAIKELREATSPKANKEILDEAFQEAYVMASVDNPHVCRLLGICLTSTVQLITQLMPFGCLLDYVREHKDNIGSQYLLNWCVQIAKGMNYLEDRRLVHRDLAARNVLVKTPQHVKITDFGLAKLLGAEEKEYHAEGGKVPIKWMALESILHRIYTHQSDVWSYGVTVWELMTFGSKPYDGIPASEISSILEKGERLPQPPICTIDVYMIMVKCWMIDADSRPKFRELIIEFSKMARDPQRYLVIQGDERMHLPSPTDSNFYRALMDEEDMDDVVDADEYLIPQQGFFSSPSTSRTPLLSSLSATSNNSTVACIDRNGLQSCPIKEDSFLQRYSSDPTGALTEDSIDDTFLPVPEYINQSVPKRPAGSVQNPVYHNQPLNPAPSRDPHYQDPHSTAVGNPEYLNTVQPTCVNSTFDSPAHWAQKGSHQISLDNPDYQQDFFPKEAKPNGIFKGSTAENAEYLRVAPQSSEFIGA
T1 sequence (P00533 25-1210 limits assumed, stated change not applied): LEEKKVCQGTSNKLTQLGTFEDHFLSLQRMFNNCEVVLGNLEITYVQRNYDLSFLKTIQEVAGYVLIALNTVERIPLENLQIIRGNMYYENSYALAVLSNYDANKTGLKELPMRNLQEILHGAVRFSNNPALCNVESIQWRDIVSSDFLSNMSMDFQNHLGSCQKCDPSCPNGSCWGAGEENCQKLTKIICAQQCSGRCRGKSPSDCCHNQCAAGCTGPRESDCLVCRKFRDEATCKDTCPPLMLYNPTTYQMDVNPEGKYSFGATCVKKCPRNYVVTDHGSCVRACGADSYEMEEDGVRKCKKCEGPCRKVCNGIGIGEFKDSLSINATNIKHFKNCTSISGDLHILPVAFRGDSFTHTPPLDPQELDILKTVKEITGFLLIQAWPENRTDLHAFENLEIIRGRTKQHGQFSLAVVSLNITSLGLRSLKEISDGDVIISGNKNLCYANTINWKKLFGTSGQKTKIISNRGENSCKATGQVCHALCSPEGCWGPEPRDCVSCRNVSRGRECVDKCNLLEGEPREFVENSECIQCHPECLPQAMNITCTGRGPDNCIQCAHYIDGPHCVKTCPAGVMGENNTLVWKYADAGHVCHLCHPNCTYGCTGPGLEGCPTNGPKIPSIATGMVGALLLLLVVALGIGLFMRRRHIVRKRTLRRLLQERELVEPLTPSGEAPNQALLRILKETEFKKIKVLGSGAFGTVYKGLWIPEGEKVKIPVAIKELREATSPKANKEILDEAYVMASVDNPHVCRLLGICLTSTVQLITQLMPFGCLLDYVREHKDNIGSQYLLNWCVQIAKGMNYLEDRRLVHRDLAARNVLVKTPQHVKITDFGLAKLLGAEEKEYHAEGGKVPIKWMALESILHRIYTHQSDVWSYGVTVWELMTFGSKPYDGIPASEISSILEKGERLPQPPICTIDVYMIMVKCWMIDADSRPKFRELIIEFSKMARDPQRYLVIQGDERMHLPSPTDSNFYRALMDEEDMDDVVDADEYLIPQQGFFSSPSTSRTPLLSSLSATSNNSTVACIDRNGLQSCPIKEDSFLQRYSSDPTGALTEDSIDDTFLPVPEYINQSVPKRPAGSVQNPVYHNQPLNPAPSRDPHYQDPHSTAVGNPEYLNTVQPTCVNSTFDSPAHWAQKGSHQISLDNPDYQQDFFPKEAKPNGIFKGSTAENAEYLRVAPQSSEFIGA
Sequence of BaF3 (EGFR-V769insASV) (P00533 with tags, fused parts or gaps DUP767-769): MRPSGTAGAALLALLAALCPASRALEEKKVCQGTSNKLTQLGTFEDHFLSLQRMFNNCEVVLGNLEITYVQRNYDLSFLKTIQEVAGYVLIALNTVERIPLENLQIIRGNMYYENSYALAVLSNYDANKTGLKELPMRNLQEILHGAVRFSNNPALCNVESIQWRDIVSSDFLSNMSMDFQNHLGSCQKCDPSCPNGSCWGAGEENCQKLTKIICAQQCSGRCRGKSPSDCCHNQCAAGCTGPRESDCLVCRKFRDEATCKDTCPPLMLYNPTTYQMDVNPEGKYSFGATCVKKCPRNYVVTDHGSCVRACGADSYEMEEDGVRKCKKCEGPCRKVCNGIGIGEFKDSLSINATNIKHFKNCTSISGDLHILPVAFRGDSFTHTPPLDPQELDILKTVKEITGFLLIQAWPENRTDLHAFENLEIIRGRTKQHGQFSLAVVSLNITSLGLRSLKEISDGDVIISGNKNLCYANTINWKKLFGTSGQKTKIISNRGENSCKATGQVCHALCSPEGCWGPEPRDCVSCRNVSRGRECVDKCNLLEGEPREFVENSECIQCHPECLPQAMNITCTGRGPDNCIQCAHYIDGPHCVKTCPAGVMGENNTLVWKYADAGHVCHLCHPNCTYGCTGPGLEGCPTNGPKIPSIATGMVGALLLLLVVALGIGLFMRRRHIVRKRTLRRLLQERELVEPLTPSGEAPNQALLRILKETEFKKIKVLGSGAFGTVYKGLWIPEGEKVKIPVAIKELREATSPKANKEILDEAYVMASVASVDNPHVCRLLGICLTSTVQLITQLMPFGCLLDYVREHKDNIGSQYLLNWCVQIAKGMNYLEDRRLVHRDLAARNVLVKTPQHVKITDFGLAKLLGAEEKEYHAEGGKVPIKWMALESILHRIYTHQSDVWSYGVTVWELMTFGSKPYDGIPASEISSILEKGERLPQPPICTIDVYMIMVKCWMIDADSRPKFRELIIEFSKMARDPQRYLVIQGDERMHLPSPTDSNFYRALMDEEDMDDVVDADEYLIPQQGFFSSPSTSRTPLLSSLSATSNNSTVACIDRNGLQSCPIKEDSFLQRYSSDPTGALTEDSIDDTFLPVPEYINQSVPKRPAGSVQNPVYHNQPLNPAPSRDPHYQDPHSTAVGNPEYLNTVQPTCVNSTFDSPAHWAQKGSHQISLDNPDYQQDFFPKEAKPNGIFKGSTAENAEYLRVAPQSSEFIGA

For the molecule `C=CC(=O)Nc1cc(Nc2ncnc(N3CC(C)(C)c4ncccc43)n2)c(OC)cc1N(C)CCN(C)C` [Compound 17, N-(5-((4-(3,3-dimethyl-2,3-dihydro-1H-pyrrolo[3,2-b]pyridin-1-yl)-1,3,5-triazin-2-yl)amino)-2-((2-(dimethylamino)ethyl)(methyl)amino)-4-methoxyphenyl)acrylamide], the “cell activity compared with Osimertinib (AZD9291) against EGFR exon 20 insertion mutations” value (shortened to “cell activity compared with Osimertinib”) in test [1] is “significant superior cell activity over Osimertinib (AZD9291)”. For the same molecule, the GI50 in test [2] was found to be 58 nM; in test [3] it was 14.7 nM; in test [4] it was 36.4 nM.
Turning to `C=CC(=O)Nc1cc(Nc2ncnc(-n3cc(C)c4cnccc43)n2)c(OC)cc1N(C)CCN(C)C` [Compound 18, N-(2-((2-(dimethylamino)ethyl)(methyl)amino)-4-methoxy-5-((4-(3-methyl-1H-pyrrolo[3,2-c]pyridin-1-yl)-1,3,5-triazin-2-yl)amino)phenyl)acrylamide], the “cell activity compared with Osimertinib” value in test [1] is recorded as “significant superior cell activity over Osimertinib (AZD9291)”. In addition, the GI50 in test [2] worked out at 320 nM; in test [3] it was 131 nM; in test [4], 244 nM.
For `C=CC(=O)Nc1cc(Nc2ncnc(-n3ccc4cnccc43)n2)c(OC)cc1N1CC[C@@H]1CN(C)C` [Example 1, (R)—N-(5-((4-(1H-pyrrole[3,2-c]pyridin-1-yl)-1,3,5-triazin-2-yl)amino)-2-(2-((dimethylamino)methyl)azetidine-1-yl)-4-methoxyphenyl)acrylamide], half-maximal inhibition in test [5] (IC50) was put at 19.8 nM. Besides, the GI50 in test [6] came out at 412 nM; in test [7] it was 280 nM; in test [8], 386 nM.
As for `C=CC(=O)Nc1cc(Nc2ncnc(-n3nc(F)c4ccccc43)n2)c(OC)cc1N(C)CCN(C)C` [Example 3, N-(2-((2-(dimethylamino)ethyl)(methyl)amino)-5-((4-(3-fluoro-1H-indazol-1-yl)-1,3,5-triazin-2-yl)amino)-4-methoxyphenyl)acrylamide], half-maximal inhibition in test [5] (IC50) was put at 57 nM.
Consider `C=CC(=O)Nc1cc(Nc2nccc(-c3cnc4c(I)cccn34)n2)c(OC)cc1N(C)CCN(C)C` [Example 4, N-(2-((2-(dimethylamino)ethyl)(methyl)amino)-4-methoxy-5-((4-(8-iodoimidazo[1,2-a]pyridin-3-yl)pyrimidin-2-yl)amino)phenyl)acrylamide], for which the IC50 (commonly the concentration at which inhibition is half-maximal) in test [5] was found to be 66.7 nM. Also, the GI50 was determined as 592 nM in test [6], 313 nM in test [7] and 470 nM in test [8]. Besides, the “cell activity compared with Osimertinib” value in test [1] is given as “significant superior cell activity over Osimertinib (AZD9291)”.
The like results for `C=CC(=O)Nc1cc(Nc2nccc(-c3cnc4c(F)cccn34)n2)c(OC)cc1N(C)CCN(C)C` [Example 5, N-(2-((2-(dimethylamino)ethyl)(methyl)amino)-5-((4-(8-fluoroimidazo[1,2-a]pyridin-3-yl)pyrimidin-2-yl)amino)-4-methoxyphenyl)acrylamide] were, in that order, 19.5 nM, 144 nM, 42.6 nM, 148 nM and “significant superior cell activity over Osimertinib (AZD9291)”.
`C=CC(=O)Nc1cc(Nc2nccc(-c3cnc4c(C(F)(F)F)cccn34)n2)c(OC)cc1N(C)CCN(C)C` [Example 6, N-(2-((2-(dimethylamino)ethyl)(methyl)amino)-4-methoxy-5-((4-(8-trifluoromethylimidazo[1,2-a]pyridin-3-yl)pyrimidin-2-yl)amino)phenyl)acrylamide] returned an IC50 in test [5] of 91 nM. For the same molecule, the GI50 worked out at 518 nM in test [6], 277 nM in test [7] and 477 nM in test [8]. Moreover, in test [1], the “cell activity compared with Osimertinib” value is “significant superior cell activity over Osimertinib (AZD9291)”.
For the molecule `C=CC(=O)Nc1cc(Nc2nccc(-n3nc(F)c4ccccc43)n2)c(OC)cc1N(C)CCN(C)C` [Example 7], the IC50 in test [5] was 57 nM.
